Assay results from ChEMBL document CHEMBL1201862, “PubChem BioAssay data set” (2004).
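Growth conditions: 96-well plates. Treatment: test compound, 48 hours, 5 concentrations. Analysis: linear interpolation between bracketing concentrations; unreached endpoints set to highest concentration. At the GI50, growth is halved.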 Activity calls are given as the source filed them. Rule as the data show it: active = GI50 up to about 1.1 µM and inactive = higher.

Tests used:
Test in all cases: growth of human tumour cells (NCI), 48 h
786-0 = system: 786-0
EKVX = system: EKVX
HCC 2998 = system: HCC 2998
HCT-116 = system: HCT-116
HT-29 = system: HT-29
KM12 = system: KM12
M14 = system: M14
MCF7 = system: MCF7
MDA-MB-435 = system: MDA-MB-435
MOLT-4 = system: MOLT-4
NCI-H226 = system: NCI-H226
NCI-H23 = system: NCI-H23
NCI-H522 = system: NCI-H522
RPMI-8226 = system: RPMI-8226
SK-MEL-28 = system: SK-MEL-28
SR = system: SR
TK-10 = system: TK-10
HOP-92 = system: HOP-92
RXF 393 = system: RXF 393

## Clc1ccc(CCN[C@H]2CCCC[C@H]2N2CCCC2)cc1Cl
786-0
  GI50: 24 µM (inactive)
EKVX
  GI50: 57.8 µM (inactive)
HCC 2998
  GI50: 8.24 µM (inactive)
HCT-116
  GI50: 19.5 µM (inactive)
HT-29
  GI50: 9.1 µM (inactive)
KM12
  GI50: 17.2 µM (inactive)
M14
  GI50: 15.3 µM (inactive)
MCF7
  GI50: 16.1 µM (inactive)
MDA-MB-435
  GI50: 18.5 µM (inactive)
MOLT-4
  GI50: 24.4 µM (inactive)
NCI-H226
  GI50: 21.1 µM (inactive)
NCI-H23
  GI50: 23.8 µM (inactive)
NCI-H522
  GI50: 17.3 µM (inactive)
RPMI-8226
  GI50: 25.2 µM (inactive)
SK-MEL-28
  GI50: 28.9 µM (inactive)
SR
  GI50: 28.7 µM (inactive)
TK-10
  GI50: 7.19 µM (inactive)

## CC1Cc2c(Br)nc(N)nc2NC1=O (configuration not stated)
786-0
  GI50: > 100 µM (inactive)
EKVX
  GI50: > 100 µM (inactive)
HCC 2998
  GI50: > 100 µM (inactive)
HCT-116
  GI50: > 100 µM (inactive)
HT-29
  GI50: > 100 µM (inactive)
KM12
  GI50: > 100 µM (inactive)
M14
  GI50: > 100 µM (inactive)
MCF7
  GI50: > 100 µM (inactive)
MDA-MB-435
  GI50: > 100 µM (inactive)
MOLT-4
  GI50: > 100 µM (inactive)
NCI-H226
  GI50: > 100 µM (inactive)
NCI-H23
  GI50: > 100 µM (inactive)
NCI-H522
  GI50: > 100 µM (inactive)
RPMI-8226
  GI50: > 100 µM (inactive)
SK-MEL-28
  GI50: > 100 µM (inactive)
SR
  GI50: 86.3 µM (inactive)
TK-10
  GI50: > 100 µM (inactive)

## O=C(O)c1c(Cl)c(Cl)c(Cl)c(Cl)c1C(=O)Nc1ccc2cn[nH]c2c1
786-0
  GI50: > 100 µM (inactive)
EKVX
  GI50: > 100 µM (inactive)
HCT-116
  GI50: > 100 µM (inactive)
HOP-92
  GI50: > 100 µM (inactive)
HT-29
  GI50: > 100 µM (inactive)
KM12
  GI50: 62.1 µM (inactive)
M14
  GI50: > 100 µM (inactive)
MCF7
  GI50: 92.7 µM (inactive)
MDA-MB-435
  GI50: > 100 µM (inactive)
NCI-H226
  GI50: > 100 µM (inactive)
NCI-H23
  GI50: > 100 µM (inactive)
NCI-H522
  GI50: > 100 µM (inactive)
RPMI-8226
  GI50: 37.4 µM (inactive)
RXF 393
  GI50: > 100 µM (inactive)
SK-MEL-28
  GI50: > 100 µM (inactive)
TK-10
  GI50: > 100 µM (inactive)

## CC(C)C1=C(Cc2ccccc2)C(=O)O/C1=C\c1cc(Cl)c(O)c(Cl)c1
786-0
  GI50: 17.1 µM (inactive)
EKVX
  GI50: 26.1 µM (inactive)
HCC 2998
  GI50: 18.6 µM (inactive)
HCT-116
  GI50: 18.2 µM (inactive)
HT-29
  GI50: 16.9 µM (inactive)
KM12
  GI50: 16.7 µM (inactive)
M14
  GI50: 19.1 µM (inactive)
MCF7
  GI50: 27.9 µM (inactive)
MDA-MB-435
  GI50: 17.3 µM (inactive)
MOLT-4
  GI50: 21.2 µM (inactive)
NCI-H226
  GI50: 20.3 µM (inactive)
NCI-H23
  GI50: 13.8 µM (inactive)
RPMI-8226
  GI50: 17.3 µM (inactive)
RXF 393
  GI50: 16.4 µM (inactive)
SK-MEL-28
  GI50: 18.5 µM (inactive)
SR
  GI50: 21.8 µM (inactive)
TK-10
  GI50: 26 µM (inactive)

## O=C(O)c1ccccc1Sc1ccc(C=C2NC(=S)N(c3ccccc3)C2=O)s1
786-0
  GI50: 18.8 µM (inactive)
EKVX
  GI50: 97.3 µM (inactive)
HCC 2998
  GI50: 97.5 µM (inactive)
HCT-116
  GI50: 72.8 µM (inactive)
HT-29
  GI50: > 100 µM (inactive)
KM12
  GI50: > 100 µM (inactive)
MCF7
  GI50: > 100 µM (inactive)
MDA-MB-435
  GI50: > 100 µM (inactive)
MOLT-4
  GI50: 54.1 µM (inactive)
NCI-H226
  GI50: > 100 µM (inactive)
NCI-H23
  GI50: > 100 µM (inactive)
NCI-H522
  GI50: 21.4 µM (inactive)
RPMI-8226
  GI50: 41 µM (inactive)
RXF 393
  GI50: > 100 µM (inactive)
SK-MEL-28
  GI50: > 100 µM (inactive)
SR
  GI50: 29 µM (inactive)
TK-10
  GI50: 76.2 µM (inactive)

## CN(C)CCC(C#N)(c1ccccc1)c1ccccc1
786-0
  GI50: > 100 µM (inactive)
EKVX
  GI50: > 100 µM (inactive)
HCC 2998
  GI50: 17.5 µM (inactive)
HCT-116
  GI50: 72.6 µM (inactive)
HOP-92
  GI50: 12.3 µM (inactive)
HT-29
  GI50: 33.7 µM (inactive)
KM12
  GI50: > 100 µM (inactive)
M14
  GI50: 25.9 µM (inactive)
MCF7
  GI50: 94.4 µM (inactive)
MDA-MB-435
  GI50: > 100 µM (inactive)
MOLT-4
  GI50: 0.102 µM (active)
NCI-H226
  GI50: > 100 µM (inactive)
NCI-H23
  GI50: > 100 µM (inactive)
NCI-H522
  GI50: 96.6 µM (inactive)
RPMI-8226
  GI50: 24.9 µM (inactive)
RXF 393
  GI50: 40 µM (inactive)
SK-MEL-28
  GI50: 23.1 µM (inactive)
TK-10
  GI50: 60.1 µM (inactive)

## O=C1c2ccsc2-c2cccc3cccc1c23.O=C1c2sccc2-c2cccc3cccc1c23
786-0
  GI50: 5.89 µM (inactive)
EKVX
  GI50: 0.0132 µM (active)
HCT-116
  GI50: 2.78 µM (inactive)
HT-29
  GI50: 2.11 µM (inactive)
KM12
  GI50: 3.52 µM (inactive)
M14
  GI50: 18.9 µM (inactive)
MCF7
  GI50: 8.41 µM (inactive)
MDA-MB-435
  GI50: 17.1 µM (inactive)
MOLT-4
  GI50: 1.29 µM (inactive)
NCI-H226
  GI50: 2.03 µM (inactive)
NCI-H522
  GI50: 5.21 µM (inactive)
RPMI-8226
  GI50: 0.0359 µM (active)
RXF 393
  GI50: 2.49 µM (inactive)
SK-MEL-28
  GI50: 21.1 µM (inactive)
SR
  GI50: 0.203 µM (active)
TK-10
  GI50: 2.55 µM (inactive)

## CC(=O)Nc1ccc2nc(-c3cccc(F)c3)cc(O)c2c1
786-0
  GI50: 10.6 µM (inactive)
EKVX
  GI50: 75 µM (inactive)
HCC 2998
  GI50: 6.4 µM (inactive)
HT-29
  GI50: 5.28 µM (inactive)
KM12
  GI50: 5.08 µM (inactive)
M14
  GI50: 4.95 µM (inactive)
MCF7
  GI50: 5.5 µM (inactive)
MDA-MB-435
  GI50: 1.6 µM (inactive)
MOLT-4
  GI50: 2.56 µM (inactive)
NCI-H23
  GI50: 16.6 µM (inactive)
NCI-H522
  GI50: 1.95 µM (inactive)
RPMI-8226
  GI50: 20.6 µM (inactive)
RXF 393
  GI50: > 31.6 µM (inactive)
SK-MEL-28
  GI50: > 23.7 µM (inactive)
SR
  GI50: 2.32 µM (inactive)
TK-10
  GI50: > 100 µM (inactive)

## O=C(CCN1CCCC1)c1ccc(Oc2ccc(F)cc2)cc1
786-0
  GI50: 16.6 µM (inactive)
EKVX
  GI50: 93.3 µM (inactive)
HCC 2998
  GI50: 45.1 µM (inactive)
HCT-116
  GI50: 60.8 µM (inactive)
HOP-92
  GI50: 15 µM (inactive)
HT-29
  GI50: 32.5 µM (inactive)
KM12
  GI50: 29.9 µM (inactive)
M14
  GI50: 31 µM (inactive)
MCF7
  GI50: 15.6 µM (inactive)
MDA-MB-435
  GI50: > 100 µM (inactive)
MOLT-4
  GI50: 24.4 µM (inactive)
NCI-H226
  GI50: > 100 µM (inactive)
NCI-H23
  GI50: > 100 µM (inactive)
RXF 393
  GI50: 22.3 µM (inactive)
SK-MEL-28
  GI50: > 100 µM (inactive)
TK-10
  GI50: 30.1 µM (inactive)

## COc1cc2c(cc1OC)C13CCN4CC5=CCOC6CC(=O)N2C1C6C5CC43O (configuration not stated)
786-0
  GI50: > 100 µM (inactive)
EKVX
  GI50: > 100 µM (inactive)
HCC 2998
  GI50: > 100 µM (inactive)
HCT-116
  GI50: > 100 µM (inactive)
HOP-92
  GI50: > 100 µM (inactive)
HT-29
  GI50: > 100 µM (inactive)
KM12
  GI50: > 100 µM (inactive)
M14
  GI50: > 100 µM (inactive)
MCF7
  GI50: > 100 µM (inactive)
MDA-MB-435
  GI50: > 100 µM (inactive)
MOLT-4
  GI50: > 100 µM (inactive)
NCI-H226
  GI50: > 100 µM (inactive)
NCI-H23
  GI50: > 100 µM (inactive)
NCI-H522
  GI50: > 100 µM (inactive)
RPMI-8226
  GI50: > 100 µM (inactive)
SK-MEL-28
  GI50: > 100 µM (inactive)
TK-10
  GI50: > 100 µM (inactive)

## c1c[nH]c(-c2ccc(-c3ccc[nH]3)c3nsnc23)c1
786-0
  GI50: > 39.1 µM (inactive)
EKVX
  GI50: 0.0426 µM (active)
HCC 2998
  GI50: 0.456 µM (active)
HCT-116
  GI50: > 45.9 µM (inactive)
HOP-92
  GI50: 31.8 µM (inactive)
HT-29
  GI50: > 26.3 µM (inactive)
KM12
  GI50: 0.217 µM (active)
M14
  GI50: > 46.9 µM (inactive)
MCF7
  GI50: 0.0877 µM (active)
MDA-MB-435
  GI50: > 48.1 µM (inactive)
MOLT-4
  GI50: > 30.3 µM (inactive)
NCI-H226
  GI50: > 100 µM (inactive)
NCI-H23
  GI50: 0.0348 µM (active)
NCI-H522
  GI50: 53.6 µM (inactive)
RPMI-8226
  GI50: > 27.4 µM (inactive)
SK-MEL-28
  GI50: > 69.5 µM (inactive)
TK-10
  GI50: 0.182 µM (active)

## Oc1nc2c(c(-c3ccc(Br)cc3)n1)COC/C2=C\c1ccc(Br)cc1
786-0
  GI50: > 50 µM (inactive)
EKVX
  GI50: > 50 µM (inactive)
HCC 2998
  GI50: > 50 µM (inactive)
HCT-116
  GI50: > 50 µM (inactive)
HOP-92
  GI50: > 50 µM (inactive)
HT-29
  GI50: > 50 µM (inactive)
KM12
  GI50: > 50 µM (inactive)
M14
  GI50: > 50 µM (inactive)
MCF7
  GI50: 47.4 µM (inactive)
MDA-MB-435
  GI50: 29.4 µM (inactive)
MOLT-4
  GI50: > 50 µM (inactive)
NCI-H226
  GI50: > 50 µM (inactive)
NCI-H23
  GI50: > 50 µM (inactive)
NCI-H522
  GI50: > 50 µM (inactive)
RPMI-8226
  GI50: > 50 µM (inactive)
RXF 393
  GI50: > 50 µM (inactive)
SK-MEL-28
  GI50: > 50 µM (inactive)
TK-10
  GI50: > 50 µM (inactive)
